# Test results from patent EP1137645B1, “ALPHA-METHYLBENZYL-CONTAINING THIOUREA INHIBITORS OF HERPES VIRUSES CONTAINING A […] GROUP” (Wyeth, priority 1998, dated 2000).
# Read-outs that look alike come from different tables or passages of the source.
# Legend:
# [1] = system: HCMV recombinant mutant virus whose genome contains the prokaryotic beta-glucuronidase gene; experiment: microbe, parasite or virus in culture; assay type: cell-based, human cytomegalovirus; conditions: for IC50: Human betaherpesvirus 5, Fibroblast
# Outline: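 Human foreskin fibroblasts infected with HCMV recombinant carrying beta-glucuronidase under a viral promoter (e.g. RV145) in presence of compound. At 96 h post-infection, lysates assayed for beta-glucuronidase by colorimetric or fluorogenic substrate as replication readout; IC50 estimated from varying compound amounts.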
# [2] = system: HSV- I; experiment: HSV antiviral (ELISA) assay; assay type: cell-based; conditions: read-out: IC50 (ug/ml) HSV
# Outline: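 Vero cells in DMEM with 2% FBS treated with compound 30 min before HSV-1 infection (MOI 0.006), then incubated ~24 h at 37°C. Viral replication measured by ELISA against glycoprotein D with β-galactosidase-linked secondary and fluorogenic substrate (ex 365/em 450 nm); IC50 relative to untreated fluorescence.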
# [3] = system: VZV strain Ellen; experiment: VZV antiviral (ELISA) assay; assay type: cell-based
# Outline: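 HFF cells infected with VZV Ellen at multiplicity below 0.1 overnight, then mixed infected/uninfected cells seeded with compound in DMEM/2% FBS and incubated three days at 37°C, 5% CO2.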
# [4] = read-out: IC50 ug/ml HCMV, HCMV, human foreskin fibroblasts
# [5] = Human alphaherpesvirus 3, HFF, read-out: IC50 (ug/ml) VZV, VZV strain Ellen, HFF cells, ELISA
# [6] = Human alphaherpesvirus 3, HFF, read-out: % inhibition 10 ug/ml VZV
# [7] = Human alphaherpesvirus 3, HFF, read-out: IC50 (ug/ml) VZV
# [8] = Human alphaherpesvirus 3, VZV strain Ellen, HFF cells, ELISA, read-out: IC50 (ug/ml) VZV
# [9] = Human alphaherpesvirus 3, read-out: % inhibition 10 ug/ml VZV, 10 ug/ml, VZV strain Ellen, HFF cells, ELISA
compound,measurement,setting,value
"CC(NC(=S)Nc1ccc(NC(=O)c2nccc3ccccc23)cc1)c1ccc(C#N)cc1 (stereo not drawn) [Example 979, Isoquinoline-1-carboxylic acid (4-{3-[1-(4-cyano-phenyl)-ethyl]-thioureido}-phenyl)-amide]",IC50,[1]; [4],3.7 µg/mL
same,IC50,[2]; Vero,> 10 µg/mL
same,IC50,[3]; [5],0.13 µg/mL
"CC1CCCCN1CC(=O)Nc1ccc(NC(=S)Nc2ccc(NC(=O)c3ccccc3F)cc2)cc1Cl (stereo not drawn) [Example 425, N-[4-(3-{3-Chloro-4-[2-(2-methyl-piperidin-1-yl)-acetylamino]-phenyl}-thioureido)-phenyl]-2-fluoro-benzamide]",IC50,[1]; [4],0.5 µg/mL
same,IC50,[2]; Vero,3 µg/mL
same,inhibition at 10 µg/mL,[3]; [6],103%
same,IC50,[3]; [7],> 7.5 µg/mL
"COc1ccc(NC(=S)Nc2ccc(NC(=O)c3ccccc3F)cc2)cc1F [Example 995, 2-Fluoro-N-{4-[3-(3-fluoro-4-methoxy-phenyl)-thioureido]-phenyl}-benzamide]",IC50,[1]; read-out: IC50 ug/ml HCMV,> 10 µg/mL
same,IC50,"[2]; HSV- I, Vero cells, ELISA",> 10 µg/mL
same,IC50,[3]; [8],> 10 µg/mL
"CC(=O)Nc1ccc(NC(=S)Nc2ccc(NC(=O)c3ccccc3F)cc2)cc1Cl [Example 397, N-{4-[3-(4-Acetylamino-3-chloro-phenyl)-thioureido]-phenyl}-2-fluoro-benzamide]",IC50,[1]; [4],10 µg/mL
same,IC50,"[2]; HSV- I, Vero cells, ELISA",5 µg/mL
same,inhibition at 10 µg/mL,[3]; [6],35%
same,IC50,[3]; [7],> 10 µg/mL
"COc1cc(OC)c(NC(=S)Nc2ccc(NC(=O)c3ccccc3Cl)cc2)cc1Cl [Example 141, 2-Chloro-N-{4-[3-(5-chloro-2,4-dimethoxy-phenyl)-thioureido]-phenyl}-benzamide]",IC50,[1]; [4],6 µg/mL
same,IC50,"[2]; HSV- I, Vero cells, ELISA",0.25 µg/mL
same,inhibition at 10 µg/mL,[3]; [6],40%
same,IC50,[3]; [7],> 10 µg/mL
"CN(c1ccc(NC(=S)Nc2ccc(NC(=O)c3ccccc3F)cc2)cc1Cl)C1CCCCC1 [Example 238, N-(4-{3-[3-Chloro-4-(cyclohexyl-methyl-amino)-phenyl]-thioureido}-phenyl)-2-fluoro-benzamide]",IC50,[1]; [4],> 10 µg/mL
same,IC50,"[2]; HSV- I, Vero cells, ELISA",> 10 µg/mL
same,inhibition at 10 µg/mL,[3]; [6],38%
same,IC50,[3]; [7],> 10 µg/mL
"CC(NC(=S)Nc1ccc(NC(=O)c2ccccc2F)cc1)c1cccc(C(F)(F)F)c1 (stereo not drawn) [Example 786, 2-Fluoro-N-(4-{3-[1-(3-trifluoromethyl-phenyl)-ethyl]-thioureido}-phenyl)-benzamide]",IC50,[1]; read-out: IC50 ug/ml HCMV,1.5 µg/mL
same,IC50,"[2]; HSV- I, Vero cells, ELISA",> 10 µg/mL
same,IC50,[3]; [8],> 7.5 µg/mL
"COc1c(Cl)cc(NC(=S)Nc2ccc(NC(=O)c3ccc(F)cc3)cc2)cc1Cl [Example 133, N-{4-[3-(3,5-Dichloro-4-methoxy-phenyl)-thioureido]-phenyl}-4-fluoro-benzamide]",IC50,[1]; [4],0.6 µg/mL
same,IC50,"[2]; HSV- I, Vero cells, ELISA",7 µg/mL
same,inhibition at 10 µg/mL,[3]; [6],36%
same,IC50,[3]; [7],> 10 µg/mL
"CC(=O)c1cccc(NC(=S)Nc2ccc(NC(=O)c3ccccc3F)cc2)c1 [Example 965, N-{4-[3-(3-Acetyl-phenyl)-thioureido]-pbenyl}-2-fluoro-benzamide]",IC50,[1]; [4],> 10 µg/mL
same,IC50,"[2]; HSV- I, Vero cells, ELISA",5 µg/mL
same,inhibition at 10 µg/mL,[3]; [6],12%
same,IC50,[3]; [7],> 10 µg/mL
"CC(NC(=S)Nc1ccc(NC(=O)c2ccccc2F)cc1)c1ccccc1Br (stereo not drawn) [Example 783, N-(4-{3-[1-(2-Bromo-phenyl)-ethyl]-thioureido}-phenyl)-2-fluoro-benzamide]",IC50,[1]; [4],1.1 µg/mL
same,IC50,[2]; Vero,> 10 µg/mL
same,IC50,[3]; [5],0.3 µg/mL
"CC(NC(=S)Nc1ccc(NC(=O)c2nccc3ccccc23)cc1)c1ccc(F)cc1 (stereo not drawn) [Example 976, Isoquinoline-1-carboxylic acid (4-{3-[1-(4-fluoro-phenyl)-ethyl]-thioureido}-phenyl)-amide]",IC50 ug/ml HCMV,"[1]; HCMV, human foreskin fibroblasts",>10 µg/mL
same,IC50,[2]; Vero,> 10 µg/mL
same,IC50,[3]; [5],0.04 µg/mL
"COc1cc(OC)c(NC(=S)Nc2ccc(NC(=O)c3ccccc3[N+](=O)[O-])cc2)cc1Cl [Example 143, N-{4-[3-(5-Chloro-2,4-dimethoxy-phenyl)-thioureido]-phenyl}-2-nitro-benzamide]",IC50,[1]; [4],> 10 µg/mL
same,IC50,"[2]; HSV- I, Vero cells, ELISA",1 µg/mL
same,inhibition at 10 µg/mL,[3]; [6],68%
same,IC50,[3]; [7],> 15 µg/mL
"Nc1c(Cl)cccc1NC(=S)Nc1ccc(NC(=O)c2c(F)cccc2F)cc1 [Example 465, N-{4-[3-(2-Amino-3-chloro-phenyl)-thioureido]-phenyl}-2,6-difluoro-benzamide]",IC50,[1]; [4],> 10 µg/mL
same,IC50,"[2]; HSV- I, Vero cells, ELISA",> 10 µg/mL
same,inhibition at 10 µg/mL,[3]; [6],31%
same,IC50,[3]; [7],> 10 µg/mL
"O=C(CN1CCCCCC1)Nc1ccc(NC(=S)Nc2ccc(NC(=O)c3ccccc3F)cc2)cc1Cl [Example 423, N-(4-{3-[4-(2-Azepan-1-yl-acetylamino)-3-chloro-phenyl]-thioureido}-phenyl)-2-fluoro-benzamide]",IC50,[1]; [4],1 µg/mL
same,IC50,"[2]; HSV- I, Vero cells, ELISA",4 µg/mL
same,inhibition at 10 µg/mL,[3]; [6],87%
same,IC50,[3]; [7],0.9 µg/mL
"O=C(Nc1ccc(NC(=S)Nc2cc(C(F)(F)F)cc(C(F)(F)F)c2)cc1)c1ccccc1F [Example 517, N-{4-[3-(3,5-Bis-trifluoromethyl-phenyl)-thioureido]-phenyl}-2-fluoro-benzamide]",IC50,[1]; read-out: IC50 ug/ml HCMV,1.1 µg/mL
same,IC50,"[2]; HSV- I, Vero cells, ELISA",> 10 µg/mL
same,inhibition at 10 µg/mL,[3]; [9],5%
same,IC50,[3]; [8],> 10 µg/mL
"O=C(Nc1ccc(NC(=S)Nc2ccc3[nH]cnc3c2)cc1)c1ccccc1F [Example 496, N-{4-[3-(1H-Benzoimidazol-5-yl)-thioureido]-phenyl}-2-fluoro-benzamide]",IC50,[1]; read-out: IC50 ug/ml HCMV,10 µg/mL
same,IC50,"[2]; HSV- I, Vero cells, ELISA",> 10 µg/mL
same,inhibition at 10 µg/mL,[3]; [9],25%
same,IC50,[3]; [8],> 10 µg/mL
"C[C@@H](NC(=S)Nc1ccc(NC(=O)c2ccccc2F)cc1)c1ccccc1 [Example 1016, 2-Fluoro-N-{4-[3-((1R)-1-phenyl-ethyl)-thioureido]-phenyl}-benzamide]",IC50,[1]; read-out: IC50 ug/ml HCMV,6.4 µg/mL
same,IC50,"[2]; HSV- I, Vero cells, ELISA",> 10 µg/mL
same,IC50,[3]; [8],> 7.5 µg/mL
"COc1cccc(C(=O)Nc2ccc(NC(=S)NC(C)c3ccc(F)cc3)cc2)c1 (stereo not drawn) [Example 753, N-(4-{3-[1-(4-Fluoro-phenyl)-ethyl]-thioureido}-phenyl)-3-methoxybenzamide]",IC50,[1]; [4],> 0.5 µg/mL
same,IC50,[2]; Vero,> 10 µg/mL
same,IC50,[3]; [5],> 7.5 µg/mL
"CC(NC(=S)Nc1ccc(NC(=O)c2ccccc2F)cc1)c1cccc(C#N)c1 (stereo not drawn) [Example 791, N-(4-{3-[1-(3-Cyano-phenyl)-ethyl]-thioureido}-phenyl)-2-fluoro-benzamide]",IC50,[1]; read-out: IC50 ug/ml HCMV,7.3 µg/mL
same,IC50,"[2]; HSV- I, Vero cells, ELISA",> 10 µg/mL
same,IC50,[3]; [8],7 µg/mL
"O=C(Nc1ccc(NC(=S)NCCCc2ccccc2)cc1)c1ccccc1F [Example 628, 2-Fluoro-N-{4-[3-(3-phenyl-propyl)-thioureido]-phenyl}-benzamide]",IC50,[1]; [4],> 10 µg/mL
same,IC50,[2]; Vero,> 10 µg/mL
same,IC50,[3]; [5],10 µg/mL
"Cc1nc2cc(NC(=S)Nc3ccc(NC(=O)c4ccccc4F)cc3)ccc2[nH]1 [Example 497, 2-Fluoro-N-{4-[3-(2-methyl-1H-benzoimidazol-5-yl)-thioureido]-phenyl}-benzamide]",IC50,[1]; read-out: IC50 ug/ml HCMV,10 µg/mL
same,IC50,"[2]; HSV- I, Vero cells, ELISA",> 10 µg/mL
same,inhibition at 10 µg/mL,[3]; [9],10%
same,IC50,[3]; [8],> 10 µg/mL
"CN(c1ccc(NC(=S)Nc2ccc(NC(=O)c3c(F)cccc3F)cc2)cc1Cl)C1CCCCC1 [Example 248, N-(4-{3-[3-Chloro-4-(cyclohexyl-methyl-amino)-phenyl]-thioureido}-phenyl)-2,6-difluoro-benzamide]",IC50,[1]; [4],2 µg/mL
same,IC50,"[2]; HSV- I, Vero cells, ELISA",> 10 µg/mL
same,inhibition at 10 µg/mL,[3]; [6],96%
same,IC50,[3]; [7],2 µg/mL
"COc1ccc(C(=O)Nc2ccc(NC(=S)Nc3cc(Cl)c(OC)c(Cl)c3)cc2)cc1 [Example 880, N-{4-[3-(3,5-Dichloro-4-methoxy-phenyl)-thioureido]-phenyl}-4-methoxy-benzamide]",IC50,[1]; [4],10 µg/mL
same,IC50,"[2]; HSV- I, Vero cells, ELISA",> 10 µg/mL
same,inhibition at 10 µg/mL,[3]; [6],30%
same,IC50,[3]; [7],> 10 µg/mL
"Nc1ccc(NC(=S)Nc2ccc(NC(=O)c3ccccc3F)cc2)cc1Cl [Example 404, N-{4-[3-(4-Amino-3-chloro-phenyl)-thioureido]-phenyl}-2-fluoro-benzamide]",IC50,[1]; [4],8 µg/mL
same,IC50,"[2]; HSV- I, Vero cells, ELISA",0.4 µg/mL
same,inhibition at 10 µg/mL,[3]; [6],15%
same,IC50,[3]; [7],> 10 µg/mL
